The text below walks through data of patent publication US10875890B2, “Peptide inhibitors targeting the Neisseria gonorrhoeae pivotal anaerobic respiration factor AniA” (priority 2017, dated 2020).

The target of test [1] is sAniA (Neisseria gonorrhoeae, UniProt Q02219). Description: biochemical. As to the method: Biolayer Interferometry. […] Streptavidin (SA) biosensors (ForteBio) were loaded with C7-3Bio peptides for 10 min. Unloaded tips were used as a control. The sAniA samples were prepared in Kinetic Buffer in concentrations of 50, 100, 500, and 1000 nM. The baseline was established for 240 s and the association and dissociation steps were performed for 500 s. Experiments were performed in three biological replicates with the curve fitting using 2:1 (Heterogeneous Ligand) model and KD value calculations were completed using Octet Data Analysis (version 9).

The target of test [2] is T1, sAniA (recombinant AniA nitrite reductase) (Neisseria gonorrhoeae, UniProt Q02219).
T1 construct: wild type protein which lacks the N-terminal palmitoylation signal, sAniA; 6xHis (C); made in house; host or cells: Escherichia coli BL21(DE3)
The test is described as follows: Inhibition of nitrite reductase activity of purified sAniA (fluorometric DAN nitrite assay). In kind it is biochemical. On the procedure:
(§1) Measurements of Nitrite Reductase Activity with Purified AniA Variants. Enzymatic activity assessments with sAniA and AniA D137A H280A were performed based upon previous work (Boulanger and Murphy 2002, J Mol Biol 315:1111-27; Kakutani et al. 1981, J Biochem 89:463-72) but using a highly sensitive fluorometric assay for nitrite measurements that relies on the reaction of nitrite with 2,3-diaminonapthalene (DAN) to form the fluorescent product, 1-(H)-naphtothriazole (Misko et al. 1993, Anal Biochem 214:11-6). All reactions were conducted under anoxic or microoxic conditions. Fluorescence was measured at excitation of 360/40 nm and emission of 460/40 nm at a gain of 50 using a Synergy HT Plate Reader (BioTek). The sAniA and AniA D137AH280A activities are expressed as the mean reaction rate (nmoles of nitrite reduced/min/[…]) from at least ten independent experiments over the course of a nitrite utilization assay (Shewell et al. 2013, Biochem Biophys Res Commun 431:215-20).
(§2) Determination of Peptides Inhibitory Concentrations Required to Reduce the Signal by 50% (IC50s). […] Nitrite measurements with DAN were performed as described above after pre-incubation of samples for 1 h at room temperature. Control reactions consisted of sAniA alone and AniA D137A H280A treated in the same manner as the experimental samples. Reactions were performed in at least twelve independent experiments. Percent inhibition was calculated using the formula % I=100*(1−(x−y)/(z−y)) where “x”, “y” and “z” are the concentrations of nitrite in samples containing sAniA incubated with synthetic peptides, AniA D137A H280A and sAniA, respectively. The data were analyzed with a nonlinear log(inhibitor) vs. response—variable slope (four parameters) curve-fitting technique (GraphPad) to obtain […]. All experiments were performed in at least ten independent trials.

The test system of test [3] is AniA nitrite reductase activity of intact N. gonorrhoeae FA1090 ΔaniA/PlacaniA cells. In kind it is cell-based, Neisseria gonorrhoeae. Particulars: for Inhibition of nitrite reductase activity of intact gonococci: FA1090 ΔaniA/PlacaniA. On the procedure: Whole Cell Nitrite Utilization Studies. The FA1090 ΔaniA/Plac::aniA and ΔaniA/Plac::D137AH280A were grown to OD600˜1.0, gently spun down, decanted and re-suspended in GCBL. […] Subsequently, 0.1 mM sodium nitrite was added and the samples were transferred into an anaerobic chamber. After 1 h, nitrite consumption was measured using Griess Reagent (Biotium) as previously described for N. gonorrhoeae nitrite reductase whole cell assay (Shewell et al. 2013, Biochem Biophys Res Commun 431:215-20). Absorbance values were measured at OD545 using a Synergy HT plate reader and nitrite concentration was assessed against a nitrite standard prepared in GCBL. Percent inhibition was calculated using the formula % 1=100*(1−(x−y)/(z−y)) where “x”, “y” and “z” are the concentrations of nitrite in samples containing FA1090 ΔaniA/PlacaniA incubated with synthetic peptides, ΔaniA/PlacaniA D137A H280A and ΔaniA/PlacaniA, respectively. Experiments were performed on at least three separate occasions and mean with SEM are reported.

Test [4] deals with T2, sAniA (Neisseria gonorrhoeae, UniProt Q02219).
T2 construct: wild type protein which lacks the N-terminal palmitoylation signal, sAniA; 6xHis (C); made in house; host or cells: Escherichia coli BL21(DE3)
T2 sequence (Q02219 whole entry, looked up): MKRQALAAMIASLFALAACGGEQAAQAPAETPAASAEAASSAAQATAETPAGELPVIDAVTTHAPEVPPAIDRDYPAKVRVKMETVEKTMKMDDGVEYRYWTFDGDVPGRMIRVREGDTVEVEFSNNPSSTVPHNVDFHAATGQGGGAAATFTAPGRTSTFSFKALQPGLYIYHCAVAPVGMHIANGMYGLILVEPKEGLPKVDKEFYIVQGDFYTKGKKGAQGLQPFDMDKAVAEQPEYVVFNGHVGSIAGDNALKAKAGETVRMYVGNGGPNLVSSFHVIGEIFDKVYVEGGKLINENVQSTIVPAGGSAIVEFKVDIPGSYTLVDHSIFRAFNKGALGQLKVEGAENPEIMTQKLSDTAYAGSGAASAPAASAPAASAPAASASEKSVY
The test is described as follows: Phage ELISA of phage-displayed peptides on sAniA-coated wells. In kind it is binding. Particulars: 10^10 PFU per well, absorbance at 450 nm. On the procedure: Phage Enzyme-linked Immunosorbent Assay (Phage ELISA). Individual wells in 96-well transparent plates (Greiner-Bio) were coated with 100 μL of 100 μg/mL of sAniA suspended in 0.1 M NaHCO3pH 8.6 and incubated overnight at 4° C. in an airtight humidified box. After incubation, excess target solution was shaken out and wells were filled with 300 μL of blocking buffer (0.1 M NaHCO3pH 8.6, 5 mg/mL BSA). Following 2 h incubation at 4° C., blocking buffer was removed and wells were washed six times with 200 μL of TBST (50 mM Tris-HCl pH 8.6, 150 mM NaCl, 0.5% Tween). Isolated individual phage amplifications (10^10 PFU) in 100 μl of TBST were incubated at room temperature for 1 h with rocking. All wells were then cleared by shaking and washed six times with 200 μL of TBST. A solution containing Anti-M13 HRP linked-Monoclonal Antibodies (NEB) (1:5,000 dilution in blocking buffer) was distributed at 200 μL per well and incubated with rocking at room temperature for 1 h. Wells were washed six times with TBST and incubated with Turbo TMB-ELISA for 30 min with rocking at room temperature. To stop the reaction, finally 100 μL of 1.78 M H2SO4 was added to each well. […] Data from seven independent experiments are shown with mean and SEM

The target in test [5] is T3, sAniA (recombinant AniA nitrite reductase) (Neisseria gonorrhoeae, UniProt Q02219).
T3 construct: wild type protein which lacks the N-terminal palmitoylation signal, sAniA; 6xHis (C); made in house; host or cells: Escherichia coli BL21(DE3)
T3 sequence (Q02219 whole entry, looked up): T2 sequence (Q02219 whole entry, looked up)
Description: Inhibition of nitrite reductase activity of purified sAniA (fluorometric DAN nitrite assay). In kind it is biochemical. As to conditions: peptide 0 to 100 μM, DAN nitrite consumption assay. On the procedure: as §1, §2

Like-named read-outs stand apart in the source and are kept apart here. Where a SMILES comes first, the peptide text is derived from it. The star is where a group is joined. Biotin = O=C1N[C@H]2[C@H](CS[C@H]2CCCCC(=O)*)N1; Ahx = NCCCCCC(=O)O

The term Kd denotes the equilibrium constant for the complex coming apart. Read a high Kd as weaker binding. At sAniA [1], `CC(C)C[C@H](NC(=O)[C@H](CC(N)=O)NC(=O)[C@H](CC(C)C)NC(=O)[C@H](CCCNC(=N)N)NC(=O)[C@H](CS)NC(=O)[C@H](Cc1ccc(O)cc1)NC(=O)[C@H](CC(N)=O)NC(=O)[C@H](CS)NC(=O)[C@H](C)NC(=O)CCCCCNC(=O)CCCC[C@@H]1SC[C@@H]2NC(=O)N[C@@H]21)C(=O)N[C@@H](Cc1c[nH]c2ccccc12)C(=O)NCC(=O)NCC(=O)NCC(=O)N[C@@H](CO)C(N)=O` [C7-3Bio] ({Biotin-Ahx}-ACNYCRLNLWGGGS-NH2) returned a Kd of 775 ± 88.5 nM. The term IC50 denotes the concentration that gives 50% inhibition. In the case of `CC(C)C[C@H](NC(=O)[C@H](CC(N)=O)NC(=O)[C@H](CC(C)C)NC(=O)[C@H](CCCNC(=N)N)NC(=O)[C@H](CS)NC(=O)[C@H](Cc1ccccc1)NC(=O)[C@H](CC(N)=O)NC(=O)[C@H](CS)NC(=O)[C@H](C)N)C(=O)N[C@@H](Cc1c[nH]c2ccccc12)C(=O)NCC(=O)NCC(=O)NCC(=O)N[C@@H](CO)C(N)=O` [C7-3P] (H-ACNFCRLNLWGGGS-NH2), the IC50 in test [2] was more than 105000 nM. As to `CC(C)C[C@H](NC(=O)[C@H](CC(N)=O)NC(=O)[C@H](CC(C)C)NC(=O)[C@H](CCCNC(=N)N)NC(=O)[C@H](CS)NC(=O)[C@H](Cc1ccc(O)cc1)NC(=O)[C@H](CC(N)=O)NC(=O)[C@H](CS)NC(=O)[C@H](C)N)C(=O)N[C@@H](Cc1c[nH]c2ccccc12)C(=O)NCC(=O)NCC(=O)NCC(=O)N[C@@H](CO)C(N)=O` [C7-3] (H-ACNYCRLNLWGGGS-NH2), the “Inhibition of nitrite reductase activity of intact gonococci” value in test [3] (0.6 mM peptide) worked out at 50%. At sAniA [1], this compound gave a Kd of 775 ± 88.5 nM. For the same compound, in test [2], the IC50 came out at 10100 nM. Take `CC(C)C[C@H](NC(=O)[C@H](CC(N)=O)NC(=O)[C@H](CC(C)C)NC(=O)[C@H](CCCNC(=N)N)NC(=O)[C@H](CS)NC(=O)[C@H](Cc1ccc(O)cc1)NC(=O)[C@H](CO)NC(=O)[C@H](CS)NC(=O)[C@H](C)N)C(=O)N[C@@H](Cc1c[nH]c2ccccc12)C(=O)NCC(=O)NCC(=O)NCC(=O)N[C@@H](CO)C(N)=O` [C7-3mod2] (H-ACSYCRLNLWGGGS-NH2): the “Inhibition of nitrite reductase activity of intact gonococci” value was 50% in test [3] (0.3 mM peptide) and 90% in test [3] (0.6 mM peptide). H-ACNYSRLNLWGGGS-NH2 [C7-3mod1]: the “Inhibition of AniA in intact gonococci (in words)” value in test [3] (0.15-0.6 mM tested, concentration not given) is “inhibited AniA moderately”.

For “H-KHYYGGDTTTLWGGGS-NH2 [12-5, synthetic version of the dodecameric phage-display hit 12-5]”, in test [3] (highest tested concentration, 0.6 mM), the “Effect on AniA activity of intact gonococci (in words)” value was “no effect”. In addition, the “Relative binding of phage-displayed peptide to sAniA (in words)” value with sAniA [4] is reported as “best binding”. Besides, in test [5], the “Influence on AniA enzymatic activity (in words)” value is given as “did not influence AniA enzymatic activity”.
